Measurements: patent publication US7351724B2, “Oxadiazole ketone inhibitors of fatty acid amide hydrolase” (The Scripps Research Institute, priority 2004, dated 2008)
Read-outs that look alike come from different tables or passages of the source.

Tests used:
[1] = system: CREAE mice; conditions: Baker 2001; cited from earlier work
[2] = system: rats; conditions: WO 02/087569; cited from earlier work
[3] = system: rats; conditions: WO 02/087569; cited from earlier work; remark: listed apart in the source
[4] = target: T1, FAAH (Mus musculus, UniProt O08914); experiment: Proteome-wide serine hydrolase selectivity screen, competition with RPFP active site labeling; type: binding; conditions: inhibition of RPFP labeling
T1 construct: from tissue
T1 sequence (O08914 1-579): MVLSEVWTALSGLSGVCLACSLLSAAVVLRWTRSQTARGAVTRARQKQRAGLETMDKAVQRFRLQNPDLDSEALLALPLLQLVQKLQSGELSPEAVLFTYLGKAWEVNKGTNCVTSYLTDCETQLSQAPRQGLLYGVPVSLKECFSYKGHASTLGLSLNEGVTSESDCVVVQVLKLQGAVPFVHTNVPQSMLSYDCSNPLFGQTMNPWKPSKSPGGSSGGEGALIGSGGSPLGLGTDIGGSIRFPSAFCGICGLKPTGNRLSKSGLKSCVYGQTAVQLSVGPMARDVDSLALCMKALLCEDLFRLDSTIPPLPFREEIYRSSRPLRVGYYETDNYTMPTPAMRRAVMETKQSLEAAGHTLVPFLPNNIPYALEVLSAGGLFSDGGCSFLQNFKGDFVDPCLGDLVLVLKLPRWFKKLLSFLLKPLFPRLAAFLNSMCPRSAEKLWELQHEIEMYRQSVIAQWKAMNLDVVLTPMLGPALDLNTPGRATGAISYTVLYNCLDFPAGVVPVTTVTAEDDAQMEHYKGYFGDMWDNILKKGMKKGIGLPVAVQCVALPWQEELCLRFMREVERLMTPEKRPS
Source text: (§1) Serine hydrolases represent one of the largest classes of enzymes collectively comprising approximately 3% of the predicted Drosophila proteome. Subclasses include serine proteases, lipases, esterases, amidases, and transacetylases.

[5] = target: T2, KIAA1363 (Mus musculus, UniProt Q8BLF1); experiment: as above; type: binding; conditions: inhibition of RPFP labeling, read-out: KIAA IC50
T2 construct: from tissue
T2 sequence (Q8BLF1 1-408): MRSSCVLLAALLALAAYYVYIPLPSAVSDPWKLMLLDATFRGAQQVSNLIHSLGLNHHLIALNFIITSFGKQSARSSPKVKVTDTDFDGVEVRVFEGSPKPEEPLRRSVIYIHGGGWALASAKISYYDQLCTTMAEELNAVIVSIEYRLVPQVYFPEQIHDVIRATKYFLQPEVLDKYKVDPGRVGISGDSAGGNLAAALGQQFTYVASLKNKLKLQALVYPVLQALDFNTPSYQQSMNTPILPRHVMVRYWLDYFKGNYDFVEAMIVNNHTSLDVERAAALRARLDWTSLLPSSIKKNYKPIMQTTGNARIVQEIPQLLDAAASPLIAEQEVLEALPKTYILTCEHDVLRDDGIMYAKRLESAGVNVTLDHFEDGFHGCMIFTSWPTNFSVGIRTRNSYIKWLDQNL
Source text: as §1

[6] = target: T3, triacylglycerol hydrolase (TGH) (Mus musculus, UniProt Q8VCT4); experiment: as above; type: binding; conditions: inhibition of RPFP labeling
T3 construct: from tissue
T3 sequence (Q8VCT4 19-565): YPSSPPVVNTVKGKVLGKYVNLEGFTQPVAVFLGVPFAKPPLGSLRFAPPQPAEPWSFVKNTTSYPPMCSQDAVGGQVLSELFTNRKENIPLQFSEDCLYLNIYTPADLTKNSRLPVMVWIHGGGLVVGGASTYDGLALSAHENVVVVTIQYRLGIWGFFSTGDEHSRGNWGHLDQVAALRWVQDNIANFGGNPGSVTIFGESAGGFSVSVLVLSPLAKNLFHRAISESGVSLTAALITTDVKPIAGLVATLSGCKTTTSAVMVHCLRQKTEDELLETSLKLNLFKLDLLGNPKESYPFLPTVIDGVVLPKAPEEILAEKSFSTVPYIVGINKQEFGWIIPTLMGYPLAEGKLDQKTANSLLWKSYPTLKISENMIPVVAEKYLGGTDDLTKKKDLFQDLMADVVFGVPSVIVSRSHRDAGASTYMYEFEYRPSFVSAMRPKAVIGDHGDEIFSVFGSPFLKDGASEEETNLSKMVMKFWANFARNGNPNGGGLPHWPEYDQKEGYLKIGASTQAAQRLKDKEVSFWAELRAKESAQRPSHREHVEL
Source text: as §1
Biotinylated (B) or fluorescently-tagged (rhodamine, R) PEG-fluorophosphonate (BPFP or RPFP, respectively) have been used to isolate and identify (BPFP) or quantitate (RPFP) proteome serine hydrolases through selective, irreversible active site labeling (Kidd, D., et al., 2001; Liu, Y., et al., 1999). Extending this to the assessment of inhibitor selectivity required incubation of the proteome with RPFP in the presence of systematically varied concentrations of inhibitor followed by SDS-PAGE to detect serine hydrolases sensitive to the inhibitor (Leung, D., et al., 2003). A resulting inhibition of RPFP active site labeling correlated with inhibitor affinity for the target and permitted the simultaneous assessment of competitive enzymes.
Two enzymes emerged from the screen as competitive targets for the oxadiazole ketone compounds detailed herein: triacylglycerol hydrolase (TGH) and an uncharacterized membrane-bound hydrolase that lacks known substrates and function (KIAA1363) (Kidd, D., et al., 2001; Liu, Y., et al., 1999; Leung, D., et al., 2003).

[7] = target: T4, FAAH (Rattus norvegicus, UniProt P97612); experiment: FAAH enzyme assay, hydrolysis of 14C-oleamide by solubilized liver plasma membrane extract; type: biochemical
T4 construct: using a solubilized liver plasma membrane extract containing FMH; from tissue; host or cells: liver plasma membrane (solubilized extract)
T4 sequence (P97612 1-579): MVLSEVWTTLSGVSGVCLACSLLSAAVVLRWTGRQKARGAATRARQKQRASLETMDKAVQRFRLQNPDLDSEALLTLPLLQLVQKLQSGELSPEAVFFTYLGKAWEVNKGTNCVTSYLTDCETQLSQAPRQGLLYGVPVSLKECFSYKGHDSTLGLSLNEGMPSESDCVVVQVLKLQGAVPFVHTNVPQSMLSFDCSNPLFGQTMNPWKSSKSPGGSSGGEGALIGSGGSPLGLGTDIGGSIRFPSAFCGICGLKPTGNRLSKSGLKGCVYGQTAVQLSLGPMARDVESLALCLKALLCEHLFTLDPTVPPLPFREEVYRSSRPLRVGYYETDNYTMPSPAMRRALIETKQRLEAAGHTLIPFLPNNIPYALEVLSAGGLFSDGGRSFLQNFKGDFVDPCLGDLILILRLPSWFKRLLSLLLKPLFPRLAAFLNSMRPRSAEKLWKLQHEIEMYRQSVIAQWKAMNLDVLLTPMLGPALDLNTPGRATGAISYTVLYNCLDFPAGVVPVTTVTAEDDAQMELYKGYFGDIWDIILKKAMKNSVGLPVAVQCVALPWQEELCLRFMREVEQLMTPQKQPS
Procedure: All enzyme assays were performed at 20-23° C. using a solubilized liver plasma membrane extract containing […] in a reaction buffer of 125 mM Tris, 1 mM EDTA, 0.2% glycerol, 0.02% Triton X-100, 0.4 mM HEPES, pH 9.0 buffer (Patricelli, M. P. et al. Bioorg. Med. Chem. Lett. 1998, 8, 613-618; Patterson, J. E., et al. J. Am Chem. Soc. 1996, 118, 5938-5945). The initial rates of hydrolysis were monitored by following the breakdown of ^14C-oleamide to oleic acid as described previously (Cravatt, B. F. et al. Science 1995, 268, 1506-1509; Patricelli, M. P. et al., 1998). The inhibition was reversible, non time-dependent. Linear least squares fits were used for all reaction progress curves and R^2 values were consistently >0.97. IC50 values were determined from the inhibition observed at 3-5 different test compound concentrations (from three or more trials at each concentration) using the formula IC50=[I]/[(K0/Ki)−1], where K0 is the control reaction rate without inhibitor and Ki is the rate with test compound at concentration [I] (Conde-Frieboes, K., et al. J. Am. Chem. Soc. 1996, 118, 5519-5525). Ki values were determined by the Dixon Method (x-intercepts of weighted linear fits of [I] versus 1/rate plots at constant substrate concentration, which were converted to Ki values using the formula Ki=−xint/[1+[S]/Km]).

[8] = system: rats; conditions: WO 04/033652; cited from earlier work
[9] = system: rats; conditions: cited from earlier work
[10] = target: T5, FAAH (Homo sapiens, UniProt O00519); conditions: cited from earlier work
T5 sequence (O00519 1-579): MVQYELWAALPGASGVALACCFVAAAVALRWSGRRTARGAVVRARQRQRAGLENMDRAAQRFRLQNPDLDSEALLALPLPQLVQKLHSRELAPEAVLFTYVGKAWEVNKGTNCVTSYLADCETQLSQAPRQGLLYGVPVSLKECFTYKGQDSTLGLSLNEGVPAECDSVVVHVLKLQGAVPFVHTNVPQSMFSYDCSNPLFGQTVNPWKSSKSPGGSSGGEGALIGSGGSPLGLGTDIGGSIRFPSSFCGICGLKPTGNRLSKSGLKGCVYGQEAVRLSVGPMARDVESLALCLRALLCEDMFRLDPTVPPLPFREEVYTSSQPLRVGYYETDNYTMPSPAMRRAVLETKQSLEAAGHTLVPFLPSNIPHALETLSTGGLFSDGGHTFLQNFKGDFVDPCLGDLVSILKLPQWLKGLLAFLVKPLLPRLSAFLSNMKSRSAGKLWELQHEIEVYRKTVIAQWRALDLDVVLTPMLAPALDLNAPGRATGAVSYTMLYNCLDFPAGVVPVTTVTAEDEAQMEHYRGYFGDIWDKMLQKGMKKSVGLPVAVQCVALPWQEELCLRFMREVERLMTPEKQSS

[11] = system: rats; conditions: Kathuria 2003; cited from earlier work
[12] = system: rats; conditions: rat; Kathuria 2003; cited from earlier work
[13] = Table 1, Dixon method, 14C-oleamide substrate, pH 9.0, 20-23° C., read-out: Ki
[14] = Table 2 (repeats the enzyme assay Ki), read-out: FAAH Ki

| IC50 [4] | IC50 [5] | IC50 [6] | Ki [7, 13] | SMILES | further results |
| --- | --- | --- | --- | --- | --- |
| – | – | – | – | CCCCCCCCCCCCCCCCS(=O)(=O)F [AM374] | spasticity [1]: significantly reduce spasticity |
| – | – | – | – | Cc1nc(-c2ccccc2)c(-c2ccccc2)n1CCCCCCNC(=O)Oc1ccccc1F [BMS-1] | analgesic effect, Chung spinal nerve ligation model [2]: analgesic effect; analgesic effect, Hargraves test [3]: analgesic effect |
| 1 nM | 50000 nM | 140 nM | – | O=C(CCCCCCc1ccccc1)c1nnc(-c2ccccn2)o1 [Example 1, 7-Phenyl-1-[5-(pyridin-2-yl)-1,3,4-oxadiazol-2-yl]-heptan-1-one] | – |
| 4 nM | 90000 nM | 30 nM | 0.85 nM | O=C(CCCCCc1ccccc1)c1nnc(-c2ccccn2)o1 [Example 2, 6-Phenyl-1-[5-(pyridin-2-yl)-1,3,4-oxadiazol-2-yl]-hexan-1-one] | – |
| 0.6 nM | 60000 nM | 200 nM | 0.77 nM | O=C(CCCCCCCc1ccccc1)c1nnc(-c2ccccn2)o1 [Example 3, 8-Phenyl-1-[5-(pyridin-2-yl)-1,3,4-oxadiazol-2-yl]-octan-1-one] | – |
| 0.8 nM | 3000 nM | 500 nM | 0.83 nM | O=C(CCCCCCCCc1ccccc1)c1nnc(-c2ccccn2)o1 [Example 4, 9-Phenyl-1-[5-(pyridin-2-yl)-1,3,4-oxadiazol-2-yl]-nonan-1-one] | Ki [7, 14]: 0.83 nM |
| – | – | – | 3 nM | CCCCCCCC/C=C\CCCCCCCC(=O)c1nnc(-c2ccccn2)o1 [Example 5, 1-[5-(Pyridin-2-yl)-1,3,4-oxadiazol-2-yl]-octadec-9-en-1-one] | – |
| 25 nM | > 100000 nM | 250 nM | 2 nM | O=C(CCCCCCc1ccccc1)c1nnc(-c2ccccc2)o1 [Example 6, 7-Phenyl-1-(5-phenyl-1,3,4-oxadiazol-2-yl)-heptan-1-one] | Ki [7, 14]: 2 nM |
| – | – | – | 16 nM | CCCCCCCC/C=C\CCCCCCCC(=O)c1nnc(-c2ccccc2)o1 [Example 7, 1-(5-Phenyl-1,3,4-oxadiazol-2-yl)-octadec-9-en-1-one] | – |
| 20 nM | > 100000 nM | 100 nM | 1 nM | O=C(CCCCCCc1ccccc1)c1nnc(-c2cccnc2)o1 [Example 9, 7-Phenyl-1-[5-(pyridin-3-yl)-1,3,4-oxadiazol-2-yl]-heptan-1-one] | – |
| 20 nM | > 100000 nM | 30 nM | 1 nM | O=C(CCCCCCc1ccccc1)c1nnc(-c2ccncc2)o1 [Example 10, 7-Phenyl-1-[5-(pyridin-4-yl)-1,3,4-oxadiazol-2-yl]-heptan-1-one] | – |
| 1 nM | > 100000 nM | 80 nM | – | O=C(CCCCCCc1ccccc1)c1nnc(-c2ccco2)o1 [Example 11] | – |
| – | – | – | – | O=C(CCCCCCc1ccccc1)c1ncc(-c2ccccn2)o1 [OL-135] | analgesic activity in tail emersion test [8]: analgesic activity; analgesic efficacy/activity in hot plate test [9]: analgesic activity; FAAH inhibition [10]: potent inhibitor |
| – | – | – | – | NC(=O)c1cccc(-c2cccc(OC(=O)NC3CCCCC3)c2)c1 [URB-597] | efficacy in zero plus maze model of anxiety [11]: efficacy; analgesic efficacy/activity in hot plate test [9]: analgesic efficacy; analgesic efficacy in formalin test [12]: analgesic efficacy |
